Converted amounts (≈) assume the structure as drawn.
System: Mycobacterium tuberculosis
Test: Antimycobacterial activity against multidrug-resistant Mycobacterium tuberculosis assessed as mycobacterial growth inhibition
Assay type: functional

SMILES	MIC50 [µg/mL]	MIC90 [µg/mL]
COc1nc(-c2ccc(Cl)cc2)ccc1[C@@H](c1ccccc1)[C@@](O)(CCN(C)C)c1cccc2ccccc12	0.111 (≈ 0.207 µM)	0.465 (≈ 0.866 µM)
COc1nc2ccc(Br)cc2cc1[C@@H](c1ccccc1)[C@@](O)(CCN(C)C)c1cccc2ccccc12 [BEDAQUILINE]	0.032 (≈ 0.0576 µM)	0.111 (≈ 0.2 µM)
NNC(=O)c1ccncc1 [ISONIAZID]	4.21 (≈ 30.7 µM)	> 40
NC[C@H]1O[C@H](O[C@H]2[C@H](O)[C@@H](O[C@H]3O[C@H](CO)[C@@H](O)[C@H](N)[C@H]3O)[C@H](N)C[C@@H]2N)[C@H](O)[C@@H](O)[C@@H]1O [KANAMYCIN]	1.24 (≈ 2.55 µM)	> 40
CO[C@H]1/C=C/O[C@@]2(C)Oc3c(C)c(O)c4c(O)c(c(/C=N/N5CCN(C)CC5)c(O)c4c3C2=O)NC(=O)/C(C)=C\C=C\[C@H](C)[C@H](O)[C@@H](C)[C@@H](O)[C@@H](C)[C@H](OC(C)=O)[C@@H]1C [RIFAMPIN]	> 40	> 40

Reference: ChEMBL document CHEMBL5113423, “Discovery and preclinical profile of sudapyridine (WX-081), a novel anti-tuberculosis agent” (Bioorg Med Chem Lett, 2022)
